Measurements reported in PMC3791872 (Bioscience Reports, 2013).
Where two headings read alike, the source gives them in different places.

How the values were obtained:
[1] = target: T1, SsoMcm (Sulfolobus solfataricus Mcm protein) complex (Saccharolobus solfataricus, UniProt Q9UXG1); assay: SsoMcm helicase assay; format: biochemical; conditions: 1 mM, 65°C, Figure S3
T1 sequence (Q9UXG1 1-686): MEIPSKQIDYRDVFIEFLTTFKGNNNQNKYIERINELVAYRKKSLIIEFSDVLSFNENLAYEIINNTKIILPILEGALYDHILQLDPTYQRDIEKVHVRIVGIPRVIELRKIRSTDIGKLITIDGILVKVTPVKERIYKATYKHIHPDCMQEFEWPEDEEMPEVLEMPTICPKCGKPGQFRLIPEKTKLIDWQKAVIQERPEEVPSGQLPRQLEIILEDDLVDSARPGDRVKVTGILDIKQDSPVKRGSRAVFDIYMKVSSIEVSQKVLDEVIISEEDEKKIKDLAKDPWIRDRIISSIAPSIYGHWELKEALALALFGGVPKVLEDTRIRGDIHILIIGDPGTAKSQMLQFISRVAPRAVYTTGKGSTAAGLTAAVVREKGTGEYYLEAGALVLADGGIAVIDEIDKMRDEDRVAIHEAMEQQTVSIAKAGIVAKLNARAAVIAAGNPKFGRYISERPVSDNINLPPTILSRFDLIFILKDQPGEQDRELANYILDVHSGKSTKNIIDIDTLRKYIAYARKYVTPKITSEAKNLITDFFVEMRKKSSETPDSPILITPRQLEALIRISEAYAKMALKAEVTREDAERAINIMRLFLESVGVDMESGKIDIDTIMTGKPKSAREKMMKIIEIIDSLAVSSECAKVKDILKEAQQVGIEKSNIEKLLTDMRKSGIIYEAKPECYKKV
Procedure: Helicase assays were performed essentially as described. Synthetic replication forks were prepared by annealing oligos 233 and 235 [IDT (Coralville), oligo 233 5′(T)40[…]; oligo 235 5′ […](T)40] and then filling in the recessed 3′-end with [α32P]dATP and unlabelled dNTPs using Klenow Fragment. Briefly, reactions ([…]) were performed in 1× helicase assay buffer [20 mM Tris/HCl (pH 7.5), 10 mM MgOAc, 20% (v/v) glycerol, 100 μM EDTA and 5 mM DTT (dithiothreitol)] and contained a final concentration of 1 nM fork substrate, 5 mM ATP, 40 mM creatine phosphate, […] creatine kinase, 33 μg/ml BSA. Reactions containing Mcm2-7 and Mcm467 were supplemented with 200 mM potassium glutamate. Reactions containing SsoMcm were incubated at 65°C, those containing T4 gp41 were incubated for 30 min at 37°C, and all other reactions were incubated at 37°C for 1 h. The products were separated by 10% (w/v) native PAGE, the resulting gels dried and the radioactivity quantified using a Fuji FLA-5100 phosphoimager. […] ATP was separated from ADP by PEI (polyethyleneimine) thin layer chromatography, and the ratio of ATP:ADP was quantified using a Fuji FLA-5100 phosphoimager. […] Protein–ssDNA binding was determined with a double filter-binding assay using an ssDNA probe (oligo 826, 5′[…]) that was 5′-radiolabelled using T4 polynucleotide kinase and [γ32P]ATP [16]. […]

SV40 large TAg = target: T2, SV40 large TAg (Simian virus 40, UniProt P03070); assay: Steady-state ATP hydrolysis by TAg; format: biochemical, SV40 (simian virus 40); conditions: 1 mM compound, 100 nM hexamer
T2 construct: made in house

[2] = target: SV40 large TAg (T-antigen) (Simian virus 40, UniProt P03070); assay: biochemical; parameters: species or system SV40 (simian virus 40); conditions: DNA unwinding
Mcm2-7 = test system: T3, Mcm2-7; assay: ssDNA double filter-binding assay, Mcm2-7; parameters: species or system Saccharomyces cerevisiae; conditions: 1 mM compound, 150 nM helicase
T3 construct: made in house; host or cells: baculovirus-infected insect cells

Wild-type yeast = assay: Yeast growth inhibition, wild-type strain; format: cell-based, Saccharomyces cerevisiae; conditions: Figure 4A
Procedure: S. cerevisiae growth inhibition was quantified using an established 96-well assay. Two isogenic W303 tester strains were used (construction details available upon request): UPY675 (matA, ade2-1, ura3-1, his3-11,15, trp1-1, leu2-3,112, can1-100, bar1::hisG, Δerg6::kanMX) and UPY1056 (isogenic to UPY675 but containing mcm4chaos3). Overnight yeast cultures were grown in YPD medium (1% (w/v) yeast extract/2% (w/v) peptone/2% (w/v) glucose), diluted to 0.05 A600, grown to an A600 of 0.1–0.15, divided into aliquots into a 96-well plate, and then treated with inhibitor titrations. Inhibitors were first diluted in pure DMSO, and then added to wells to a final volume of 100 μl containing 2% (v/v) DMSO. Plates were grown without shaking at 30°C for 24 h. Optical density was quantified at 0 and 24 h with a Bio-tek EL800 Universal Microplate reader. Percent relative growth was determined by calculating the change in optical density over 24 h at each concentration relative to a 2% DMSO control.

Sequence of SV40 large TAg (T-antigen) (P03070 whole entry, looked up): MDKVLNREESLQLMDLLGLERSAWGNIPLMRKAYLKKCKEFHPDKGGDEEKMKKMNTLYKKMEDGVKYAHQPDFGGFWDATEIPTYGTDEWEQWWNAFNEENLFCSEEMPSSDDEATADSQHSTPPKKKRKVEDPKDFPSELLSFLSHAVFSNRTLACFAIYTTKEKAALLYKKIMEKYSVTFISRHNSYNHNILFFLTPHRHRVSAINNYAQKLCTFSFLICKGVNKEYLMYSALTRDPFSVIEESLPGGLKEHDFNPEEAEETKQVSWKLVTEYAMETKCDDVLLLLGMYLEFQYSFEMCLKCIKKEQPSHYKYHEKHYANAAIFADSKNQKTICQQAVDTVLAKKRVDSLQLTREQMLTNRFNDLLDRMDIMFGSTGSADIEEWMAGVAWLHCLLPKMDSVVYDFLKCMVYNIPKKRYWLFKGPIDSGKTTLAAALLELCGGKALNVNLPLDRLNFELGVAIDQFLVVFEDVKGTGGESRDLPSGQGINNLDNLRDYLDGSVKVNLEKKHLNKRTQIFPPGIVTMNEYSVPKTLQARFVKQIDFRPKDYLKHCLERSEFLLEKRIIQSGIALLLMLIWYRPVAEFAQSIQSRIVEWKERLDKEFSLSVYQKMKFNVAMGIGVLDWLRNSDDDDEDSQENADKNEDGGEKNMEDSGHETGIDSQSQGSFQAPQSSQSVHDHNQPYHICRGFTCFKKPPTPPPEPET
T2 sequence (P03070 whole entry): as the sequence (P03070 whole entry, looked up) above

O=C(O)c1cn(C2CC2)c2cc(N3CCNCC3)c(F)cc2c1=O [Ciprofloxacin, ciprofloxacin, reference compound]
inhibition of SsoMcm helicase [1]: none of the tested helicases were substantially inhibited
effect on ATP hydrolysis of TAg (SV40 large TAg): only modest effects
IC50 ([2]; 100 nM complex, read-out: IC50 TAg helicase activity): 4 mM
IC50 ([2]; 100 nM hexamer, inhibitor preincubation, […], read-out: IC50 T-antigen): 4.01 mM
effect on ssDNA binding of Mcm2-7 (Mcm2-7): only modest effects
growth response of wild-type yeast (Wild-type yeast): resistant
